Measured values from patent US20190070128A1, “USE OF CANNABIDIVARIN IN THE TREATMENT OF AUTISM SPECTRUM DISORDER, ASSOCIATED DISORDERS AND SCHIZOPHRENIA” (GW Research Limited, priority 2016, published 2019).
Entries after “also recorded” stand apart in the source; their conditions may differ.

Columns and labels:
[1] = test system: neuroinflammatory markers (GFAP, CD11b, TNF-α); assay: neuroinflammation studies, hippocampus, Western blotting, prenatal VPA model; assay type: in vivo, rat
Experimental: At the end of the study, on PND 59, male rats treated with CBDV 20 mg/kg i.p. were sacrificed and the hippocampus was collected 24 hours after the last CBDV injection and stored at −80° C. for evaluation of changes in protein expression of components of the endocannabinoid system (CB1 and CB2 receptors, the endocannabinoid degrading enzymes, FAAH and MAGL and the synthetic enzymes, DAGLα and NAPE-PLD); neuroinflammatory markers (GFAP (astrocytic marker), Iba1 (microglial marker), CD11 b (activated microglial marker), TNF-α (proinflammatory cytokine) and iNOS (inflammatory mediator)); synaptic markers (Synaptophysin (synaptic vesicle protein), PSD-95 (post synaptic density protein) and the neurotrophins, BDNF and IGF by Western blotting.

Fmr1 KO and WT mice = assay: susceptibility to audiogenic seizures in Fmr1 KO and WT mice (PND21); assay type: in vivo, mouse; conditions: for audiogenic seizures: FXS mice
Experimental: This trait was evaluated in PND21 mice after acute administration of the compounds or its vehicle, 30 min before starting the procedure. To measure audiogenic seizure sensitivity mice were placed individually into a novel environment, a glass cylinder (40 cm high, 16 cm diameter) and allowed to explore for 1 min. Next, a bell (100 dB) was rung for 30 sec and seizure activity scored according to the following scale: no response, 0; wild running, 1; clonic seizure, 2; tonic seizure, 3; status epilepticus/respiratory arrest/death, 4.
On postnatal day 21 (PND21) WT and Fmr1 KO mice were injected with CBDV (2, 10, 20 or 100 mg/kg) or vehicle, 30 min before exposure to a bell ring (100 dB). Mice exposed to this noise for 30 sec ceased from their normal exploratory behaviour and reacted with gradually to wild-running, clonic seizure, tonic seizure or death. The maximum response was annotated for each mouse as detailed in Table 2 below. A score was calculated according to the severity of the symptoms as explained in the Methods section.

PCP-treated rats = assay: social interaction test in sub-chronic PCP treated rats; assay type: in vivo, rat
Experimental: Female hooded-Lister rats were used for this experiment. Rats were housed in groups of 5 under standard laboratory conditions under a 12 hr light: dark cycle, lights on at 0700 hr. Testing was carried out in the light phase.
Rats were randomly assigned to two treatment groups and treated with vehicle, n=20 (distilled water, i.p.) or Phencyclidine hydrochloride (PCP), n=100 (2 mg/kg, i.p. twice daily for 7-days). PCP was dissolved in distilled water. This was followed by a 7-day wash out period before the rats were tested following acute treatment with CBDV, risperidone or vehicle.
Risperidone (0.1 mg/kg) was dissolved in a minimum volume of acetic acid, made up to volume with distilled water and pH adjusted to 6 with 0.1M NaOH and administered via the i.p. route in a volume of 1 ml/kg, 60 min prior to testing.
CBDV at 2, 10 or 20 mg/kg was dissolved in 2:1:17 (Ethanol:Cremofor:Saline 0.9%) and administered via the i.p. route in a volume of 5 ml/kg, 60 min prior to testing.
The social interaction test is performed in an open-field comprising a square box made of Plexiglas (52×52×31 cm) placed 27 cm above the floor on a moveable trolley. The floor of the box is white with black gridlines forming 9 identical squares on it. All other walls are black. A video camera connected to a video recorder and monitor is positioned above the box. The object used for the test consists of a heavy structure made of metal that cannot be displaced by the animals.
The rats were habituated to the test environment and arena prior to the test day. Habituation consists of placing all rats from one cage together in the empty test arena for one hour for three days including the day before the test day.
Pairs of rats, weight matched (15-20 g) and unfamiliar to each other, receiving either no treatment (n=70 “conspecific” rats) or different treatments (PCP and Vehicle; n=10 “tested” rats or PCP+Drug; n=50 “tested” rats) were placed in the test arena together for 10 min and behaviour assessed as described below.
An inanimate object such as an unopened drinks can is also placed in the centre of the arena to measure any differences in interaction of the test animal with an unfamiliar animal as opposed to an unfamiliar object. After each 10 minute trial, the object and arena are cleaned with 10% alcohol in an attempt to remove traces of any olfactory cues. All testing is carried out under standard room illumination levels (70 cd/m2).
Behaviour in both trials was recorded on video for subsequent blind scoring. A behavioural scoring software program (Hindsight, Scientific programming services) is used to score the following parameters: • Investigative sniffing behaviour: sniffing the conspecific's snout or parts of the body including the anogenital region; • Following: rat moves after the conspecific i.e. a vehicle treated rat of the same species, around the arena; • Avoidances: actively turning away when approached by the conspecific animal; • Investigation of object: exploration of object placed in centre of the arena; and • Locomotor activity is recorded by counting the total number of sectors (i.e. lines) crossed by the test rat.

hCB1 = hCB1 (Homo sapiens, UniProt P21554); parameters: expressed in transfected cells; host or cells: CHO cells expressing hCB1 (membranes); conditions: hCB1-CHO cell membranes; extract compared with purified CBDV; cited from earlier work
Sequence of hCB1 (P21554 whole entry): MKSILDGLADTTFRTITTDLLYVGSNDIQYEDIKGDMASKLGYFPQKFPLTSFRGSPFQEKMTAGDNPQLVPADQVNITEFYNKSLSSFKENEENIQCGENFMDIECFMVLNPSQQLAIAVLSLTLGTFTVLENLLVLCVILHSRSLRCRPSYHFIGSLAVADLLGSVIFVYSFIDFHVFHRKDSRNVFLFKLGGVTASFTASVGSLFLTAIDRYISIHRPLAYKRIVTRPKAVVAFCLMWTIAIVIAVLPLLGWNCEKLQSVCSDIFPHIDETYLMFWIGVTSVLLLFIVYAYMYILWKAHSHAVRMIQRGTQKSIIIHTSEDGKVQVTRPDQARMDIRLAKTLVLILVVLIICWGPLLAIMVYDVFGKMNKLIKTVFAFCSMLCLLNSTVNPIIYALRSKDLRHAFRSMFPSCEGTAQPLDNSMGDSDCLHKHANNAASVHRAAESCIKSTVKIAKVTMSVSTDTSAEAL

[2] = WT, CBDV 2 mg/kg, n = 6, acute (30 min)
[3] = WT, CBDV 10 mg/kg, n = 5, acute (30 min)
[4] = WT, CBDV 20 mg/kg, n = 6, acute (30 min)
[5] = WT, CBDV 100 mg/kg, n = 6, acute (30 min)

C=C(C)[C@@H]1CCC(C)=C[C@H]1c1c(O)cc(CCC)cc1O [CBDV, Cannabidivarin]
expression of increased inflammatory markers (GFAP, CD11b, TNFα) in hippocampus ([1]; VPA-exposed male rats, chronic CBDV 20 mg/kg i.p.): completely normalised
expression of inflammatory markers in hippocampus ([1]; control rats, chronic CBDV): no effect
audiogenic seizures, maximum response: Clonic seizure (Fmr1 KO and WT mice; 2 mg/kg, 0.5 h): 0
audiogenic seizures, maximum response: No response (Fmr1 KO and WT mice; 2 mg/kg, 0.5 h): 2
audiogenic seizures, maximum response: Tonic seizure (Fmr1 KO and WT mice; 2 mg/kg, 0.5 h): 2
audiogenic seizures, maximum response: Wild running (Fmr1 KO and WT mice; 2 mg/kg, 0.5 h): 1
audiogenic seizures, maximum response: Clonic seizure (Fmr1 KO and WT mice; 10 mg/kg, 0.5 h): 0
audiogenic seizures, maximum response: No response (Fmr1 KO and WT mice; 10 mg/kg, 0.5 h): 0
audiogenic seizures, maximum response: Tonic seizure (Fmr1 KO and WT mice; 10 mg/kg, 0.5 h): 2
audiogenic seizures, maximum response: Wild running (Fmr1 KO and WT mice; 10 mg/kg, 0.5 h): 3
audiogenic seizures, maximum response: Clonic seizure (Fmr1 KO and WT mice; 20 mg/kg, 0.5 h): 0
audiogenic seizures, maximum response: No response (Fmr1 KO and WT mice; 20 mg/kg, 0.5 h): 2
audiogenic seizures, maximum response: Tonic seizure (Fmr1 KO and WT mice; 20 mg/kg, 0.5 h): 2
audiogenic seizures, maximum response: Wild running (Fmr1 KO and WT mice; 20 mg/kg, 0.5 h): 1
audiogenic seizures, maximum response: Clonic seizure (Fmr1 KO and WT mice; 100 mg/kg, 0.5 h): 0
audiogenic seizures, maximum response: No response (Fmr1 KO and WT mice; 100 mg/kg, 0.5 h): 5
audiogenic seizures, maximum response: Tonic seizure (Fmr1 KO and WT mice; 100 mg/kg, 0.5 h): 0
audiogenic seizures, maximum response: Wild running (Fmr1 KO and WT mice; 100 mg/kg, 0.5 h): 0
audiogenic seizures, maximum response: Death (Fmr1 KO and WT mice; FXS (Fmr1 KO), CBDV 2 mg/kg, n = 5, acute (30 min)): 0
audiogenic seizures, maximum response: Death (Fmr1 KO and WT mice; FXS (Fmr1 KO), CBDV 10 mg/kg, n = 5, acute (30 min)): 0
audiogenic seizures, maximum response: Death (Fmr1 KO and WT mice; FXS (Fmr1 KO), CBDV 20 mg/kg, n = 5, acute (30 min)): 0
audiogenic seizures, maximum response: Death (Fmr1 KO and WT mice; FXS (Fmr1 KO), CBDV 100 mg/kg, n = 5, acute (30 min)): 0
audiogenic seizures (Fmr1 KO and WT mice; 100 mg/kg acute, 100 mg/kg): remained seizure free; also recorded: completely eliminate the seizures
audiogenic seizures (Fmr1 KO and WT mice; lower doses): seizures of varying severity
audiogenic seizures, maximum response: Clonic seizure (Fmr1 KO and WT mice; [2]): 0
audiogenic seizures, maximum response: Death (Fmr1 KO and WT mice; [2]): 0
audiogenic seizures, maximum response: No response (Fmr1 KO and WT mice; [2]): 6
audiogenic seizures, maximum response: Tonic seizure (Fmr1 KO and WT mice; [2]): 0
audiogenic seizures, maximum response: Wild running (Fmr1 KO and WT mice; [2]): 0
audiogenic seizures, maximum response: Clonic seizure (Fmr1 KO and WT mice; [3]): 0
audiogenic seizures, maximum response: Death (Fmr1 KO and WT mice; [3]): 0
audiogenic seizures, maximum response: No response (Fmr1 KO and WT mice; [3]): 5
audiogenic seizures, maximum response: Tonic seizure (Fmr1 KO and WT mice; [3]): 0
audiogenic seizures, maximum response: Wild running (Fmr1 KO and WT mice; [3]): 0
audiogenic seizures, maximum response: Clonic seizure (Fmr1 KO and WT mice; [4]): 0
audiogenic seizures, maximum response: Death (Fmr1 KO and WT mice; [4]): 0
audiogenic seizures, maximum response: No response (Fmr1 KO and WT mice; [4]): 5
audiogenic seizures, maximum response: Tonic seizure (Fmr1 KO and WT mice; [4]): 0
audiogenic seizures, maximum response: Wild running (Fmr1 KO and WT mice; [4]): 1
audiogenic seizures, maximum response: Clonic seizure (Fmr1 KO and WT mice; [5]): 0
audiogenic seizures, maximum response: Death (Fmr1 KO and WT mice; [5]): 0
audiogenic seizures, maximum response: No response (Fmr1 KO and WT mice; [5]): 6
audiogenic seizures, maximum response: Tonic seizure (Fmr1 KO and WT mice; [5]): 0
audiogenic seizures, maximum response: Wild running (Fmr1 KO and WT mice; [5]): 0
PCP effects on social interaction (sniffing, following, avoiding) (PCP-treated rats): reverse these effects in a statistically significant manner
time spent avoiding the other rat (PCP-treated rats; CBDV 20 mg/kg): reduce
time spent following the other rat (PCP-treated rats; CBDV 20 mg/kg): increased
time spent sniffing the other rat (PCP-treated rats; CBDV 10 and 20 mg/kg): significantly increased
affinity for CB1 cannabinoid receptors (hCB1): neither bound with high enough affinity
